Experimental data: publication PMC12442245, “Activity Analysis of the P2X Receptor Antagonist PPADS against Signal Transducer and Activator of Transcription Proteins” (Chembiochem, 2025)
Where two headings read alike, the source gives them in different places.

Assays:
STAT1 = target: T1, STAT1 (Homo sapiens, UniProt P42224); assay: Competitive fluorescence polarization (FP) assay, STAT1; format: binding
T1 sequence (P42224 1-750): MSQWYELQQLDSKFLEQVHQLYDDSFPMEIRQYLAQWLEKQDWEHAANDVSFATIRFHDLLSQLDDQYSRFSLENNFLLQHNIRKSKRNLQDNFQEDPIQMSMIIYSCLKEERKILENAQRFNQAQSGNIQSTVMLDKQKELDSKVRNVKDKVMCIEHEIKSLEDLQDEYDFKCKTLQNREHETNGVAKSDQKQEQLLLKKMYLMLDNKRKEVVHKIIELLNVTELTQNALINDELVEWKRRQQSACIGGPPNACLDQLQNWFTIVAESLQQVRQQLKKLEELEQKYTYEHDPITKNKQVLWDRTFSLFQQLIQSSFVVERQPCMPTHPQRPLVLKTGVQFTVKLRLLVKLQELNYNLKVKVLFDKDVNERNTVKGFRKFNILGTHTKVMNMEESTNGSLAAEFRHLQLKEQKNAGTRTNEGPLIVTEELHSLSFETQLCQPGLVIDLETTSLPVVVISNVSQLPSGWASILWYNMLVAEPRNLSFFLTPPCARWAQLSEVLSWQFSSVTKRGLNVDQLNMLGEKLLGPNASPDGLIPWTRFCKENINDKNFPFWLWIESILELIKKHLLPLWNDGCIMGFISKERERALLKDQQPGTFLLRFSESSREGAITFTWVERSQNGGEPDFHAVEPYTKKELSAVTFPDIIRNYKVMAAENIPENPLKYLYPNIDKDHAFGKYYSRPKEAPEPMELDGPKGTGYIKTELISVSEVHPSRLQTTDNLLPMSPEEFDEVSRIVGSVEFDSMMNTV
Text: Screening of chemical libraries
Screening of chemical libraries comprising approximately 5000 known bioactive compounds in fluorescence polarization-based assays against phosphorylation-dependent protein-protein interaction domains, including STAT proteins, has been described.[1] PPADS was purchased from Sigma-Aldrich, and iso-PPADS from Bio-Techne.
(§1) Fluorescence polarization assays
(§2) Competitive fluorescence polarization (FP) assays for STAT1,[2] STAT3,[3] STAT4,[4] STAT5a,[5] STAT5b[6] and STAT6[1] were performed as previously described. Briefly, peptide binding to proteins was analyzed using the following carboxyfluorescein (CF) -labelled pepti des at a concentration of 10 nM: STAT1: 5-CF-GpYDKPHVL-OH, STAT3: 5-CF-GpYLPQTV -NH2, STAT4: 5-CF-GpYLPQNID-OH, STAT5a and STAT5b: 5-CF-GpYLVLDKW-OH, STAT6: 5- […]
CFGp[…]-OH. Proteins were used at a final concentration representing the approximate Kd value for binding of the corresponding peptide to the protein, namely 65 nM for STAT1, 65 nM for STAT3, 35 nM for STAT4, 125 nM for STAT5a, 65 nM for STAT5b and 75 nM for STAT6. Assays were carried out in buffer containing 10 mM Tris/HCl, 50 mM NaCl, 1 mM EDTA, 0.1% NP-40 substitute and 2% DMSO, with 1 mM reducing agent where applicable, at pH 8.0. […] FP was measured using an Infinite F500 plate reader (Tecan) and measurements were converted into percent inhibition according to […]

STAT4 = target: T2, STAT4 (Homo sapiens, UniProt Q14765); assay: Competitive fluorescence polarization (FP) assay, STAT4; format: binding
T2 sequence (Q14765 1-748): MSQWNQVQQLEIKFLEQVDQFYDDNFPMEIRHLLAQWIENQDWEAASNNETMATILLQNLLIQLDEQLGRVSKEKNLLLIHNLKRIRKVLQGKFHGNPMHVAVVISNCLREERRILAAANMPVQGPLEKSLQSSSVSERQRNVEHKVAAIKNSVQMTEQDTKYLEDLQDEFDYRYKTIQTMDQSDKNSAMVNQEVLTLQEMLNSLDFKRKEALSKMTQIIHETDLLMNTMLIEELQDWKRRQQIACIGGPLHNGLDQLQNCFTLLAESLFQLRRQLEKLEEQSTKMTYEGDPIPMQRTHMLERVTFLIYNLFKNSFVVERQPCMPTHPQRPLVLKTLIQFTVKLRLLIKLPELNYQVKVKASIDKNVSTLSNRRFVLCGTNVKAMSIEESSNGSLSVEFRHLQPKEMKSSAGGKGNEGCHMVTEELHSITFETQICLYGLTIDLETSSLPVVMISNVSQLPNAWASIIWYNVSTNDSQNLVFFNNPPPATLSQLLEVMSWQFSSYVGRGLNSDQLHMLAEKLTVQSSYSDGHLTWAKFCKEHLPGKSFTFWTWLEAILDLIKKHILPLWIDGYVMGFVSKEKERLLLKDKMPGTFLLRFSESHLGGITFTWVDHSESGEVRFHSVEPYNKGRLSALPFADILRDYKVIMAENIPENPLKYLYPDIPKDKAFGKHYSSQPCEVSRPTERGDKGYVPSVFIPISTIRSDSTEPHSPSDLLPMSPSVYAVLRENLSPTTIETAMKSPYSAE
Description: Screening of chemical libraries […]
PPADS was purchased […]
from Sigma-Aldrich, and iso-PPADS from Bio-Techne.
as §1, §2
CFGp[…]-OH. Proteins were used at a final concentration representing the approximate Kd value for binding of the corresponding peptide to the protein, namely 65 nM for STAT1, 65 nM for STAT3, 35 nM for STAT4, 125 nM for STAT5a, 65 nM for STAT5b and 75 nM for STAT6. Assays were carried out in buffer containing 10 mM Tris/HCl, 50 mM NaCl, 1 mM EDTA, 0.1% NP-40 substitute and 2% DMSO, with 1 mM reducing agent where […]
applicable, at pH 8.0. […]
before adding peptide and incubating for a further 1 h. FP was measured using an Infinite F500 plate reader (Tecan) and measurements were converted into percent inhibition according to […]

[1] = no reducing agent, 1 h, read-out: IC50 STAT4 (FP assay)

Row | SMILES | IC50 (STAT1; no reducing agent, 1 h) | IC50 (STAT4; IC50 STAT4 (FP assay), 1 mM DTT, 1 hr) | IC50 (STAT4; IC50 STAT4 (FP assay), 1 mM DTT, 2 hr) | IC50 (STAT4; IC50 STAT4 (FP assay), 1 mM DTT, 3 hr) | IC50 (STAT4; IC50 STAT4 (FP assay), 1 mM DTT, 4 hr) | IC50 (STAT4; IC50 STAT4 (FP assay), 1 mM TCEP, 1 hr) | IC50 (STAT4; IC50 STAT4 (FP assay), 1 mM TCEP, 2 hr) | IC50 (STAT4; IC50 STAT4 (FP assay), 1 mM TCEP, 3 hr) | IC50 (STAT4; IC50 STAT4 (FP assay), 1 mM TCEP, 4 hr) | IC50 (STAT4; [1]) | IC50 (STAT4; no reducing agent, 2 hr, read-out: IC50 STAT4 (FP assay), no reducing agent) | IC50 (STAT4; no reducing agent, 3 hr, read-out: IC50 STAT4 (FP assay), no reducing agent) | IC50 (STAT4; no reducing agent, 4 hr, read-out: IC50 STAT4 (FP assay), no reducing agent) | inhibition at 100 µM (STAT1; at 100 μM, the highest concentration tested)
1 | Cc1nc(/N=N/c2ccc(S(=O)(=O)O)cc2S(=O)(=O)O)c(COP(=O)(O)O)c(C=O)c1O [PPADS, pyridoxalphosphate‐6‐azophenyl‐2',4'‐disulfonic acid] | 87400 ± 6600 nM | 1700 ± 300 nM | 2500 ± 400 nM | 3700 ± 600 nM | 4900 ± 900 nM | 2400 ± 300 nM | 2400 ± 200 nM | 2500 ± 400 nM | 2800 ± 500 nM | 2200 ± 200 nM | 2400 ± 300 nM | 2600 ± 300 nM | 2400 ± 100 nM | 
2 | Cc1nc(/N=N/c2cc(S(=O)(=O)O)ccc2S(=O)(=O)O)c(COP(=O)(O)O)c(C=O)c1O [iso‐PPADS] |  |  |  |  |  |  |  |  |  | 1900 ± 200 nM |  |  |  | 41 ± 0.4%
